The values that follow come from ChEMBL document CHEMBL4706603, “Discovery of VEGFR-2 inhibitors exerting significant anticancer activity against CD44+ and CD133+ cancer stem cells (CSCs): Reversal of TGF-β induced epithelial-mesenchymal transition (EMT) in hepatocellular carcinoma” (Eur J Med Chem, 2020).

The test system of one assay is MCF7. In words: Cytotoxicity against human MCF7 cells assessed as reduction in cell viability incubated for 24 hrs by MTT assay. The class given is functional, cell-based. Particulars: for IC50: MCF7, 24 h. (In general: Tetrazolium dyes change colour on reduction, which living cells bring about.)
A short description of assay [1]: Inhibition of VEGF expression in human HUVEC assessed as mean fluorescence intensity at IC50 incubated for 48 hrs by FITC based flow cytometry analysis (reference value: 53.91+/- 0.95). The class given is functional. For orientation: In flow cytometry, cells or beads pass a laser one at a time.
Assay [2] concerns HUVEC. In words: Antiproliferative activity against human HUVEC assessed as reduction in cell viability incubated for 24 hrs by MTT assay. The class given is functional, cell-based.
A short description of assay [3]: Inhibition of VEGFR2 expression in human HUVEC assessed as mean fluorescence intensity at IC50 incubated for 48 hrs by fluorescence microscopic analysis (reference value: 1.448 +/- 0.01). Type of assay: functional.
The subject of assay [4] is HUVEC. The assay is described as follows: Induction of apoptosis in human HUVEC assessed as late apoptotic cells at IC50 incubated for 48 hrs by annexin V-FITC and PI staining based flow cytometry. The class given is functional.
Assay [5] can be described thus: Inhibition of VEGFR2 expression in human HUVEC assessed as mean fluorescence intensity at IC50 incubated for 48 hrs by FITC based flow cytometry analysis (reference value: 49.24 +/- 0.47). Type of assay: functional.
The test system of assay [6] is HUVEC. The assay is described as follows: Induction of apoptosis in human HUVEC assessed as early apoptotic cells at IC50 incubated for 48 hrs by annexin V-FITC and PI staining based flow cytometry (reference value: <1%). The class given is functional.
For assay [7], the system named is MDA-MB-231. In words: Cytotoxicity against human MDA-MB-231 cells assessed as reduction in cell viability incubated for 24 hrs by MTT assay. The class given is functional, cell-based. Particulars: for IC50: MDA-MB-231, 24 h.
A further assay has as its system HepG2. In words: Cytotoxicity against human HepG2 cells assessed as reduction in cell viability incubated for 24 hrs by MTT assay. To be noted: for IC50: HepG2, 24 h. Type of assay: functional, cell-based.
The test system of assay [8] is MDA-MB-231. In words: Induction of apoptosis in human MDA-MB-231 cells assessed as early apoptotic cells at IC50 incubated for 72 hrs by Alexa Fluor488-annexin V/PI staining based flow cytometric analysis (Rvb= 0.6 %). The class given is functional.
A further assay relates to Chorioallantoic membrane. The assay is described as follows: Antiangiogenic activity in chicken fertilized egg chorioallantoic membrane measured upto 72 hrs by CAM assay. The class given is functional, tissue-based. To be noted: Gallus gallus, dose 0.01-2 µM, time hrs <=72.
In assay [9] the test system is MDA-MB-231. In words: Induction of apoptosis in human MDA-MB-231 cells assessed as viable cells at IC50 incubated for 72 hrs by Alexa Fluor488-annexin V/PI staining based flow cytometric analysis (Rvb= 99.4 %). Type of assay: functional.
The test system of assay [10] is MDA-MB-231. In words: Induction of apoptosis in human MDA-MB-231 cells assessed as late apoptotic cells at IC50 incubated for 72 hrs by Alexa Fluor488-annexin V/PI staining based flow cytometric analysis (Rvb= 0.0 %). Type of assay: functional.
In assay [11] the test system is MDA-MB-231. In words: Induction of apoptosis in human MDA-MB-231 cells assessed as necrotic cells at IC50 incubated for 72 hrs by Alexa Fluor488-annexin V/PI staining based flow cytometric analysis (Rvb= 0.0 %). The class given is functional.

SMILES strings stand for the structures.

Usually IC50 stands for the point on the concentration scale where inhibition reaches its midpoint. In the case of `O=C(Nc1cccc(C(F)(F)F)c1)Nc1cccc2c(Oc3ccc([N+](=O)[O-])cc3)cccc12`, in the assay on MCF7, the inhibition result was “Dose-dependent effect” and the IC50 came to 953 nM.
As for `CNC(=O)c1cc(Oc2ccc(NC(=O)Nc3ccc(Cl)c(C(F)(F)F)c3)cc2)ccn1.Cc1ccc(S(=O)(=O)O)cc1` [SORAFENIB TOSYLATE], the Flu intensity was 7.14 in [1], 1.1 in assay [3] and 6.45 in assay [5]. In addition, the IC50 in the assay with HUVEC [2] was 1950 nM; in the assay with MCF7, 1380 nM; in the assay with MDA-MB-231 [7], 349 nM; with HepG2 it was 215 nM. In addition, the values for the Activity in the assay on HUVEC [4] and with HUVEC [6] were 25.6% and 24.5%, respectively.
Take `CC(=O)Nc1ccc(Oc2cccc3c(NC(=O)Nc4ccc(Cl)c(C(F)(F)F)c4)cccc23)cc1`: the Activity in the assay with MDA-MB-231 [8] is 47%; in the assay with Chorioallantoic membrane, “Dose-dependent effect”; in the assay on MDA-MB-231 [9], 20.9%; in the assay with MDA-MB-231 [10] it was 27.5%; in the assay on MDA-MB-231 [11], 4.6%. The inhibition entry in the assay on MCF7, with MDA-MB-231 [7] and with HepG2 was “Dose-dependent effect” throughout. The IC50 is 1410 nM in the assay on MDA-MB-231 [7] and 258 nM with HepG2.
Turning to `CC(=O)Nc1ccc(Oc2cccc3c(NC(=O)Nc4ccccc4)cccc23)cc1`, the Activity with MDA-MB-231 [8] was 46.37%; with Chorioallantoic membrane, “Dose-dependent effect”; in the assay on MDA-MB-231 [9], 21.2%; with MDA-MB-231 [10], 27.4%; with MDA-MB-231 [11] it was 4.5%. Further, the inhibition entry in the assay on MCF7, in the assay with MDA-MB-231 [7] and with HepG2 was “Dose-dependent effect” each time. Also, the half-maximal inhibitory concentration (IC50) in the assay on MDA-MB-231 [7] was 1410 nM; with HepG2, 258 nM.
Turning to `O=C(Nc1ccccc1)Nc1cccc2c(Oc3ccc([N+](=O)[O-])cc3)cccc12`, in the assay with MCF7, the inhibition entry was “Dose-dependent effect” and the 50% inhibitory concentration (IC50) worked out at 953 nM.
Regarding `O=C(Nc1ccccc1)Nc1cccc2c(O)cccc12`, the inhibition result in the assay with MCF7 was “Dose-dependent effect”.
Turning to `COc1ccc(NC(=O)Nc2cccc3c(Oc4ccc([N+](=O)[O-])cc4)cccc23)cc1`, the inhibition entry with MCF7 is “Dose-dependent effect”.
As to `O=C(Nc1ccc(Cl)c(C(F)(F)F)c1)Nc1cccc2c(Oc3ccc([N+](=O)[O-])cc3)cccc12`, in the assay on MCF7, the inhibition result is “Dose-dependent effect” and the IC50 worked out at 953 nM.
With `O=C(Nc1cccc(C(F)(F)F)c1)Nc1cccc2c(O)cccc12`, in the assay with MCF7, the inhibition entry is “Dose-dependent effect” and the IC50 turned out to be 953 nM.
